Assay results as given in ChEMBL document CHEMBL3779861, “Selective Inhibition of CBX6: A Methyllysine Reader Protein in the Polycomb Family” (ACS Med Chem Lett, 2016).
pIC50, pKd: −log10 of the molar value. Non-standard residues stand in square brackets, D forms with d. Residues, ends and D or L forms follow the SMILES beside them. *: point of attachment. X1 = O=C(O)c1cc(NC(=S)*)ccc1-c1c2ccc(=O)cc-2oc2cc(O)ccc12; Biotin = O=C1N[C@H]2[C@H](CS[C@H]2CCCCC(=O)*)N1; Lys(Me3) = C[N+](C)(C)CCCC[C@H](N)C(=O)O; Benzoyl(4-Br) = O=C(c1ccc(Br)cc1)*; Abu = CC[C@H](N)C(=O)O

Assays:
[1] = molecular target: T1, Chromobox protein homolog 7 (Homo sapiens, UniProt O95931); experiment: Binding affinity to N-terminal His6-tagged human CBX7 (8 to 62) expressed in Escherichia coli BL21 using FITC-peptide-3 as competitive binding probe by fluorescence polarization assay
T1 sequence (O95931 whole entry): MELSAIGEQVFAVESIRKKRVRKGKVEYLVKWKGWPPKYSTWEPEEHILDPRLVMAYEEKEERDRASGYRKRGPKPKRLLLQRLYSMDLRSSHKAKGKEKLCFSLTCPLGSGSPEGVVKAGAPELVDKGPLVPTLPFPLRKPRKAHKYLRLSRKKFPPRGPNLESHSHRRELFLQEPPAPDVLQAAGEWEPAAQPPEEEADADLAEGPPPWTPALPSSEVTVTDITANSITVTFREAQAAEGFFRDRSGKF

[2] = molecular target: T2, Chromobox protein homolog 6 (Homo sapiens, UniProt O95503); experiment: Binding affinity to N-terminal His6-tagged human CBX6 (8 to 65 residues) expressed in Escherichia coli BL21 by surface plasmon resonance assay
T2 sequence (O95503 whole entry): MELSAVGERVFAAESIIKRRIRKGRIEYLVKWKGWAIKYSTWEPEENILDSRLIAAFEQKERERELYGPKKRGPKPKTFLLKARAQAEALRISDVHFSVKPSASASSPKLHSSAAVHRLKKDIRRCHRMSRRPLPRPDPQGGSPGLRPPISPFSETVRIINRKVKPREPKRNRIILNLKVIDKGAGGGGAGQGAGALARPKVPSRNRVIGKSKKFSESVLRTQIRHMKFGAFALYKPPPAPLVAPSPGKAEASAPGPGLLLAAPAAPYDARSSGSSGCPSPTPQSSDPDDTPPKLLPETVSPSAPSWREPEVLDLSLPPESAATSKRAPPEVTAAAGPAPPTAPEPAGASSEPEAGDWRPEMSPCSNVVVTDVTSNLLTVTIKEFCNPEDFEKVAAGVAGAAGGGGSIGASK

[3] = molecular target: T1, Chromobox protein homolog 7; experiment: Binding affinity to N-terminal His6-tagged human CBX7 (8 to 62 residues) expressed in Escherichia coli BL21 by surface plasmon resonance assay
[4] = molecular target: Chromobox protein homolog 7 (Homo sapiens, UniProt O95931, V13A); experiment: Binding affinity to human CBX7 V13A mutant expressed in Escherichia coli BL21 by surface plasmon resonance assay
[5] = molecular target: Chromobox protein homolog 1 (Homo sapiens, UniProt P83916)
[6] = molecular target: T3, Chromobox protein homolog 2 (Homo sapiens, UniProt Q14781); experiment: Binding affinity to N-terminal His6-tagged human CBX2 (8 to 62) expressed in Escherichia coli BL21 using FITC-peptide-3 as competitive binding probe by fluorescence polarization assay
T3 sequence (Q14781 whole entry): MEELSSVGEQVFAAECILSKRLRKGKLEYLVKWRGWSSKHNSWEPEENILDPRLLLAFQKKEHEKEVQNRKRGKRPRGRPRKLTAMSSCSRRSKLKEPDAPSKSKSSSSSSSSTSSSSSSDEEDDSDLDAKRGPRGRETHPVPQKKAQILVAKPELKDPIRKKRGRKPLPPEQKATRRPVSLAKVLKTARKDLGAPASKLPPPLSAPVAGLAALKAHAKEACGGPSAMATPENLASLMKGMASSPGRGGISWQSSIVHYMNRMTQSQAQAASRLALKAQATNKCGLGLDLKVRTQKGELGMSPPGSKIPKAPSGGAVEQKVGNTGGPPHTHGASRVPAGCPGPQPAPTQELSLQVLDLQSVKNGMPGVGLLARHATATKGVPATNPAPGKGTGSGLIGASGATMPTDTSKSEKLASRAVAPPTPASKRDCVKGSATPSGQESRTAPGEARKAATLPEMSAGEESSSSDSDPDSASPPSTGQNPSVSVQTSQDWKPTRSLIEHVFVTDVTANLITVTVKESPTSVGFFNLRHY

[7] = molecular target: T4, E3 SUMO-protein ligase CBX4 (Homo sapiens, UniProt O00257); experiment: Binding affinity to N-terminal His6-tagged human CBX4 (8 to 65 residues) expressed in Escherichia coli BL21 using FITC-peptide-3 as competitive binding probe by fluorescence polarization assay
T4 sequence (O00257 whole entry): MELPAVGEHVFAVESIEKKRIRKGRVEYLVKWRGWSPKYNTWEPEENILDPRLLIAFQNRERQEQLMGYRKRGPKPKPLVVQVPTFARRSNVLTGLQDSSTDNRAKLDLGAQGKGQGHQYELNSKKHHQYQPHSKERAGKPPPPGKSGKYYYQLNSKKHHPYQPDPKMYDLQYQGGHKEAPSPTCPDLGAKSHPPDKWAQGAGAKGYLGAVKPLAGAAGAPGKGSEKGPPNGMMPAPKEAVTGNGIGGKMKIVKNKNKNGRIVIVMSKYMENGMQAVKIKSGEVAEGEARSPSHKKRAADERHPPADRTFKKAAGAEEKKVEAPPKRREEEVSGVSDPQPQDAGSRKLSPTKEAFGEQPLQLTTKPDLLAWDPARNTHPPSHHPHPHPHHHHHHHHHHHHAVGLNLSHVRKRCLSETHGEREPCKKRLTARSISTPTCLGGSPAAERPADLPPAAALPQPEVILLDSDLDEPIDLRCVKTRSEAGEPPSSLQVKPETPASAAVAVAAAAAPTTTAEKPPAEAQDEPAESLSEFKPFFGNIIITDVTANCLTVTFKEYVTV

[8] = molecular target: T2, Chromobox protein homolog 6; experiment: Binding affinity to N-terminal His6-tagged human CBX6 (8 to 65 residues) expressed in Escherichia coli BL21 using FITC-peptide-3 as competitive binding probe by fluorescence polarization assay
[9] = molecular target: T5, Chromobox protein homolog 8 (Homo sapiens, UniProt Q9HC52); experiment: Binding affinity to N-terminal His6-tagged human CBX8 (8 to 61 residues) expressed in Escherichia coli BL21 using FITC-peptide-3 as competitive binding probe by fluorescence polarization assay
T5 sequence (Q9HC52 whole entry): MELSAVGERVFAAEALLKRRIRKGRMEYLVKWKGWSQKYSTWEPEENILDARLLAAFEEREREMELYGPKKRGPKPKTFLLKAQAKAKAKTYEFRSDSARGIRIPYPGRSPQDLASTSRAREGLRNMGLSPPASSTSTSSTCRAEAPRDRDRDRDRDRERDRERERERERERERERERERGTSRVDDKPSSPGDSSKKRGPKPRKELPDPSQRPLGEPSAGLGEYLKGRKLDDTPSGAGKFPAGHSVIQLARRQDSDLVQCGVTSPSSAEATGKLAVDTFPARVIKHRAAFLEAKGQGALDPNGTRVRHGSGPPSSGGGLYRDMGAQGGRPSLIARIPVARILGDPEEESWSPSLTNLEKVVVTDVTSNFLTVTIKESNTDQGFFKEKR

Chain of Chromobox protein homolog 1 (P83916 whole entry): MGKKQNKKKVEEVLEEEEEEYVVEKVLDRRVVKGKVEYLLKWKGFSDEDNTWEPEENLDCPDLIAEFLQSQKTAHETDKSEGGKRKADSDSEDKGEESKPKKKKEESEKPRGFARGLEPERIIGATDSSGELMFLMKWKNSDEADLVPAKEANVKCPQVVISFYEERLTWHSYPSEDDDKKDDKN
Chain of Chromobox protein homolog 7 (Homo sapiens, UniProt O95931, V13A) (O95931 whole entry V13A): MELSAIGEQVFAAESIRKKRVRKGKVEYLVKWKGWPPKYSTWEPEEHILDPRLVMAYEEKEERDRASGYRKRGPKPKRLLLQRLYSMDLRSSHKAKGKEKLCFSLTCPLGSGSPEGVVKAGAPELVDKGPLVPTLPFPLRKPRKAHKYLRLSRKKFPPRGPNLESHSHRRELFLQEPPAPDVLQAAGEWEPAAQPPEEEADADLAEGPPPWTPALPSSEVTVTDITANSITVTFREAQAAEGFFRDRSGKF

Row | pIC50 [1] | pKd [2] | pKd [3] | pKd [4] | pKd [1] | pKd [5] | pKd [6] | pKd [7] | pKd [8] | pKd [9] | Structure (SMILES)
1 |  | 6.96 | 6.80 | 6.54 |  |  |  |  |  |  | C[C@H](NC(=O)[C@H](Cc1ccccc1)NC(=O)c1ccc(Br)cc1)C(=O)N[C@@H](Cc1ccc(O)cc1)C(=O)N[C@@H](CCCC[N+](C)(C)C)C(=O)N[C@@H](CO)C(=O)N[C@@H](CCC(=O)O)C(=O)N[C@@H](CCCCNC(=O)CCCC[C@@H]1SC[C@@H]2NC(=O)N[C@@H]21)C(N)=O ({Benzoyl(4-Br)}-FAY[Lys(Me3)]SEK(Biotin)-NH2)
2 |  |  |  |  | 5.28 | 4.11 | 4.75 | 4.81 | 6.05 | 5.22 | CC(C)[C@H](NC(=O)[C@H](Cc1ccccc1)NC(=O)c1ccc(Br)cc1)C(=O)N[C@@H](Cc1ccc(O)cc1)C(=O)N[C@@H](CCCC[N+](C)(C)C)C(=O)N[C@@H](CO)C(=O)N[C@@H](CCC(=O)O)C(=O)N[C@@H](CCCCNC(=S)Nc1ccc(-c2c3ccc(=O)cc-3oc3cc(O)ccc23)c(C(=O)O)c1)C(N)=O ({Benzoyl(4-Br)}-FVY[Lys(Me3)]SEK(X1)-NH2)
3 |  |  |  |  | 6.40 | 4.12 | 5.80 | 6.10 | 6.10 | 6.00 | CC[C@H](NC(=O)[C@H](Cc1ccccc1)NC(=O)c1ccc(Br)cc1)C(=O)N[C@@H](Cc1ccc(O)cc1)C(=O)N[C@@H](CCCC[N+](C)(C)C)C(=O)N[C@@H](CO)C(=O)N[C@@H](CCC(=O)O)C(=O)N[C@@H](CCCCNC(=S)Nc1ccc(-c2c3ccc(=O)cc-3oc3cc(O)ccc23)c(C(=O)O)c1)C(N)=O ({Benzoyl(4-Br)}-F[Abu]Y[Lys(Me3)]SEK(X1)-NH2)

The next lines start with the compound.

Row | Structure (SMILES) | pIC50 [1] | pKd [2] | pKd [3] | pKd [4] | pKd [1] | pKd [5] | pKd [6] | pKd [7] | pKd [8] | pKd [9]
4 | C[C@H](NC(=O)[C@H](Cc1ccccc1)NC(=O)c1ccc(Br)cc1)C(=O)N[C@@H](Cc1ccc(O)cc1)C(=O)N[C@@H](CCCC[N+](C)(C)C)C(=O)N[C@@H](CO)C(N)=O ({Benzoyl(4-Br)}-FAY[Lys(Me3)]S-NH2) | 5.77 |  |  |  |  |  |  |  |  | 
5 | C[C@H](NC(=O)[C@H](Cc1ccccc1)NC(=O)c1ccc(Br)cc1)C(=O)N[C@@H](Cc1ccc(O)cc1)C(=O)N[C@@H](CCCC[N+](C)(C)C)C(=O)N[C@@H](CO)C(=O)N[C@@H](CCC(=O)O)C(=O)N[C@@H](CCCCNC(=S)Nc1ccc(-c2c3ccc(=O)cc-3oc3cc(O)ccc23)c(C(=O)O)c1)C(N)=O ({Benzoyl(4-Br)}-FAY[Lys(Me3)]SEK(X1)-NH2) |  |  |  |  | 7.00 | 5.26 | 6.52 | 6.70 | 6.52 | 6.00
6 | CC(C)[C@H](NC(=O)[C@H](Cc1ccccc1)NC(=O)c1ccc(Br)cc1)C(=O)N[C@@H](Cc1ccc(O)cc1)C(=O)N[C@@H](CCCC[N+](C)(C)C)C(=O)N[C@@H](CO)C(=O)N[C@@H](CCC(=O)O)C(=O)N[C@@H](CCCCNC(=O)CCCC[C@@H]1SC[C@@H]2NC(=O)N[C@@H]21)C(N)=O ({Benzoyl(4-Br)}-FVY[Lys(Me3)]SEK(Biotin)-NH2) |  | 6.04 | 4.47 | 4.62 |  |  |  |  |  | 
